# Reference: patent US7320785B2, “Compositions and methods for modulation of DARPP-32 phosphorylation” (The Rockefeller University, priority 2001, dated 2008)
# Where two headings read alike, the source gives them in different places. Marks after values point to notes of the source that are not given here.
# How the values were obtained:
# WT and DARPP-32 KO mice [1] = assay: Locomotor activity measurements in activity monitors; type: in vivo, mouse
# Description: Locomotor activity of WT and DARPP-32 KO mice was measured in activity monitors (43×44×45 cm) equipped with both horizontal and vertical sensors (Opto-Varimex, Columbus Instruments, Columbus, Ohio). Mice were acclimated to the boxes for 1 h, […] before the day of the experiment. The day of the experiment, mice were placed in the boxes for 20 min (habituation period) before drug administration. […] Locomotor activity parameters (distance traveled and stereotypic movements) were quantified by using the AutoTrack System (Columbus Instruments).
# c-fos mRNA = c-fos mRNA expression by in situ hybridization in WT and DARPP-32 KO mice; type: in vivo, mouse; conditions: 20 min postinjection
# Description: Twenty minutes after the injections, the animals were killed by decapitation and their brains frozen at −80° C. Coronal sections were then made and processed for in situ hybridization experiments with a probe against c-fos mRNA. The expression of c-fos mRNA is widely used as a marker for the biochemical activity of neurons. Manipulations of the serotonergic system, by PCA (4 mg/kg) and 5-HTP (50 mg/kg+carbidopa 50 mg/kg), increased c-fos mRNA expression in several brain regions, including prefrontal cortex and striatum in DARPP-32 wild-type mice.
# DARPP-32 [2] = assay: DARPP-32 phosphorylation in vivo in mice after i.p. injection, immunoblotting; design: species or system mouse; conditions: for phospho-Thr75 DARPP-32 / phospho-Thr34 DARPP-32: prefrontal cortex
# depressed patients = conditions: several clinical trials; cited from earlier work
# DARPP-32 [3] = assay: DARPP-32 phosphorylation in mouse brain slices, immunoblotting with phosphorylation state-specific antibodies; conditions: for EC50 / activity at 100 µM: Mus musculus
# [4] = system: GluR1 subunit of the AMPA receptor; assay: Phosphorylation of the GluR1 subunit of the AMPA receptor in slices from WT and DARPP-32 KO mice; type: cell-based, mouse
# Description: In order to evaluate the involvement of DARPP-32 in the activity of serotonin, mice that lack DARPP-32 (DARPP-32 knockout (KO) mice) were used. In one set of experiments, striatal slices were prepared from normal mice (DARPP-32 wild-type) and DARPP-32 knockout mice and incubated with serotonin for 5 minutes. Experiments were then carried out to determine the levels of phospho-Ser845 of the GluR1 subunit of the AMPA (AMPA, α-amino-3-hydroxy-5-methyl-4-isoxazolepropionic acid) receptor.
# DARPP-32 [5] = assay: Thr34-DARPP-32 phosphorylation in striatal slices from unilaterally 6-OHDA-lesioned rats; type: cell-based, rat
# Description: Further experiments were conducted that provide evidence that activation of a serotonergic intracellular signaling pathway and of DARPP-32 has applicability in the treatment of Parkinson's disease. In these experiment, rats were unilaterally (i.e. in one hemisphere) injected with 6-OHDA (6-hydroxydopamine; a dopaminergic neurotoxin) according to standard methods. The 6-OHDA is selectively taken up by dopaminergic neurons and kills the neurons. Such 6-OHDA-lesioned animals are considered an animal model of Parkinson's disease. The 6-OHDA-lesioned animals were sacrificed, striatal slices were prepared, as described hereinabove, from the non-lesioned (i.e., “normal”) and the 6-OHDA-lesioned (i.e., “dopamine-depleted”) hemispheres, and used for striatal slice experiments according to the methods described hereinabove. 5-HT or saline (control) was administered according to the methods described hereinabove. […] The interpretation of these experiments is that 5-HT activates DARPP-32 phosphorylation via a mechanism that is largely independent of enhanced dopaminergic neurotransmission. Agents that enhance serotonergic neurotransmission, and that are stimulatory, can thus exert anti-Parkinsonian effects independent of dopamine, and can be used in the treatment of Parkinson's disease.
# [6] = forced-swim test and tail suspension test; cited from earlier work
# DARPP-32 mRNA = DARPP-32 mRNA levels by in situ hybridization after chronic fluoxetine; type: in vivo, mouse; conditions: fluoxetine 10 mg/kg i.p. once daily for 19 days
# Description: (§1) Brains were rapidly dissected out and frozen at −80° C. Cryostat sections (12-μm) were prepared and hybridized with [α-^35S]UTP-labeled riboprobes prepared by in vitro transcription from cDNA clones corresponding to full-length clones of DARPP-32 or inhibitor-1 as described (21). After hybridization, the sections were exposed to Biomax MR film (Kodak) for 2 14 days and analyzed with a Microcomputer Imaging Device system (M4, Imaging Research, St. Catherine's, ON, Canada).
# WT and DARPP-32 KO mice [7] = assay: Tail-suspension test for antidepressant efficacy; type: in vivo, mouse; conditions: fluoxetine 5 or 10 mg/kg i.p. 30 min before the trial
# DARPP-32 [8] = assay: Total DARPP-32 protein levels after chronic treatment with fluoxetine; type: in vivo, mouse; conditions: chronic fluoxetine 10 mg/kg i.p., compared with chronic saline
# Description: (§2) In all experiments, hippocampi, prefrontal cortices, and striata were rapidly dissected out and stored at −80° C. until assayed.
# inhibitor-1 mRNA = assay: Inhibitor-1 mRNA levels by in situ hybridization after chronic fluoxetine; type: in vivo, mouse; conditions: hippocampus, prefrontal cortex, striatum; fluoxetine 10 mg/kg i.p. once daily for 19 days
# Description: as §1
# inhibitor-1 = assay: Total inhibitor-1 protein levels after chronic treatment with fluoxetine; type: in vivo, mouse; conditions: chronic fluoxetine 10 mg/kg i.p.
# Description: as §2
# [9] = 5-HTP 50 mg/kg + carbidopa 50 mg/kg
# [10] = PCA 4 mg/kg i.p., 15 min, n=5 mice
# [11] = striatum, 4 mg/kg i.p., 15 min after injection
# [12] = nucleus accumbens slices, serotonin 100 μM, 2 min, n=12
# [13] = slices from hippocampus, frontal cortex, striatum, WT mice, serotonin 100 μM, 10 min
# [14] = striatal slices, serotonin for 5 minutes
# [15] = Hippocampus, 5 mg/kg i.p., 15 min
# [16] = Hippocampus, 10 mg/kg i.p., 15 min
# [17] = Hippocampus, 20 mg/kg i.p., 15 min
# [18] = Striatum, 10 mg/kg i.p., 15 min
# [19] = Striatum, 20 mg/kg i.p., 15 min
compound,measurement,setting,value
"N[C@@H](Cc1c[nH]c2ccc(O)cc12)C(=O)O [5-HTP, 5-hydroxytryptophan]",locomotor activity and stereotypic behavior,"WT and DARPP-32 KO mice [1]; DARPP-32 KO mice, 5-HTP 50 mg/kg i.p. 30 min after carbidopa 50 mg/kg",abolished
same,locomotor activity and stereotypic behavior,"WT and DARPP-32 KO mice [1]; WT mice, 5-HTP 50 mg/kg i.p. 30 min after carbidopa 50 mg/kg",robust increase
same,"c-fos mRNA Levels in Striatum, DARPP-32 Knockout",c-fos mRNA; [9],0.092(0.009)#*
same,"c-fos mRNA Levels in Striatum, DARPP-32 Wild-type",c-fos mRNA; [9],0.195(0.017)*
same,phospho-Thr75 DARPP-32,"DARPP-32 [2]; 5-HTP 50 mg/kg i.p. after carbidopa, 15 min, n=5",74±8.0%
same,phospho-Thr34 DARPP-32,"DARPP-32 [2]; 5-HTP 50 mg/kg i.p. after carbidopa, 15 min, n=5 mice",144±8.3%
"CC(N)Cc1ccc(Cl)cc1 (stereo not shown) [PCA, para-chloroamphetamine]",locomotor activity and stereotypic behavior,"WT and DARPP-32 KO mice [1]; DARPP-32 KO mice, PCA 4 mg/kg i.p.",abolished
same,locomotor activity and stereotypic behavior,"WT and DARPP-32 KO mice [1]; WT mice, PCA 4 mg/kg i.p., 50 min",robust increase
same,"c-fos mRNA Levels in Striatum, DARPP-32 Knockout",c-fos mRNA; PCA 4 mg/kg i.p.,0.084(0.010)#*
same,"c-fos mRNA Levels in Striatum, DARPP-32 Wild-type",c-fos mRNA; PCA 4 mg/kg i.p.,0.181(0.021)*
same,phospho-Thr34 DARPP-32,DARPP-32 [2]; [10],147±4.8%
same,phospho-Thr75 DARPP-32,DARPP-32 [2]; [10],79±3.8%
same,Percent Phospho-Ser137,DARPP-32 [2]; [11],128(7.1)* Percent
same,Percent Phospho-Thr34,DARPP-32 [2]; [11],171(9.1)* Percent
same,Percent Phospho-Thr75,DARPP-32 [2]; [11],80.1(3.4)* Percent
COc1ccc(C2CNC(=O)C2)cc1OC1CCCC1 (stereo not shown) [rolipram],anti-depressant efficacy,depressed patients,has anti-depressant efficacy
NCCc1c[nH]c2ccc(O)cc12 [Serotonin],EC50,"DARPP-32 [3]; 2 min, read-out: EC50 for effect on DARPP-32 phosphorylation at Ser137",37.6 µM
same,EC50,"DARPP-32 [3]; 2 min, read-out: EC50 for effect on DARPP-32 phosphorylation at Thr34",13.5 µM
same,activity at 100 µM,"DARPP-32 [3]; 2 min, read-out: Percent Phospho-Ser137",141%
same,activity at 100 µM,"DARPP-32 [3]; 2 min, read-out: Percent Phospho-Thr34",342%
same,EC50,"DARPP-32 [3]; 10 min, read-out: EC50 for effect on DARPP-32 phosphorylation at Thr75",29.6 µM
same,activity at 100 µM,"DARPP-32 [3]; 10 min, read-out: Percent Phospho-Thr75",76%
same,phosphorylation at Ser137,DARPP-32 [3]; [12],143±7%
same,phosphorylation at Thr34,DARPP-32 [3]; [12],307±25%
same,phosphorylation at Thr75,"DARPP-32 [3]; nucleus accumbens slices, serotonin, 10 min, n=12",75±6%
same,phospho-Thr34 DARPP-32,"DARPP-32 [3]; prefrontal cortex slices, 2 min of incubation, n=6",185±15%
same,phospho-Thr75 DARPP-32,"DARPP-32 [3]; prefrontal cortex slices, 10 min of incubation, n=6",85±3%
same,"increased phosphorylation at Ser-845 GluR1, DARPP-32 KO versus WT","[4]; slices from DARPP-32 KO mice, serotonin 100 μM",significantly reduced
same,phosphorylation at Ser-831 GluR1,[4]; [13],increased
same,phosphorylation at Ser-845 GluR1,[4]; [13],increased
same,"Ser845-GluR1 Levels, DARPP-32 Knockout",[4]; [14],111(14.9)# percentage of control
same,"Ser845-GluR1 Levels, DARPP-32 Wild-type",[4]; [14],199(22.7)* percentage of control
same,Percent Phospho-Thr34,DARPP-32 [5]; 6-OHDA lesioned hemisphere,369(67.2)* Percent
same,Percent Phospho-Thr34,DARPP-32 [5]; Intact hemisphere,306(50.7) Percent
CC(CNS(=O)(=O)C(C)C)c1ccc(-c2ccc(C#N)cc2)cc1 (stereo not shown) [LY404187],antidepressant-like actions,[6],robust antidepressant-like actions
CC(CNS(=O)(=O)C(C)C)c1ccc(-c2ccsc2)cc1 (stereo not shown) [LY392098],antidepressant-like actions,[6],robust antidepressant-like actions
CNCCC(Oc1ccc(C(F)(F)F)cc1)c1ccccc1 (stereo not shown) [Fluoxetine],DARPP-32 mRNA expression,DARPP-32 mRNA; hippocampus and frontal cortex,increased
same,DARPP-32 mRNA expression,DARPP-32 mRNA; striatum,not in striatum
same,effect on immobility in the tail-suspension test,WT and DARPP-32 KO mice [7]; DARPP-32 KO mice,strongly attenuated
same,immobility in the tail-suspension test,"WT and DARPP-32 KO mice [7]; WT mice, 5 min trial",decreased immobility
same,locomotion,WT and DARPP-32 KO mice [1]; fluoxetine at the doses examined (5 or 10 mg/kg),not significantly affected
same,total DARPP-32 protein,DARPP-32 [8]; hippocampus,121%
same,total DARPP-32 protein,DARPP-32 [8]; prefrontal cortex,123%
same,total DARPP-32 protein,DARPP-32 [8]; striatum,102%
same,inhibitor-1 mRNA expression,inhibitor-1 mRNA,no effects
same,effect of fluoxetine alone on DARPP-32 phosphorylation,"DARPP-32 [3]; slices from hippocampus, prefrontal cortex, striatum, fluoxetine 10 M printed",no effect
same,Percent Phospho-Thr34,"DARPP-32 [2]; Cortex, 5 mg/kg i.p., 15 min",144(7.4)* Percent
same,Percent Phospho-Thr75,"DARPP-32 [2]; Cortex, 5 mg/kg i.p., 15 min",86(7.0)* Percent
same,Percent Phospho-Thr34,"DARPP-32 [2]; Cortex, 10 mg/kg i.p., 15 min",140(4.7)* Percent
same,Percent Phospho-Thr75,"DARPP-32 [2]; Cortex, 10 mg/kg i.p., 15 min",85(4.2)* Percent
same,Percent Phospho-Thr75,"DARPP-32 [2]; Cortex, 20 mg/kg i.p., 15 min",82(7.3)* Percent
same,Percent Phospho-Thr34,DARPP-32 [2]; [15],150(3.8)* Percent
same,Percent Phospho-Thr75,DARPP-32 [2]; [15],84(6.4)* Percent
same,Percent Phospho-Thr34,DARPP-32 [2]; [16],142(6.2)* Percent
same,Percent Phospho-Thr75,DARPP-32 [2]; [16],87(3.0)* Percent
same,Percent Phospho-Thr34,DARPP-32 [2]; [17],141(11.6)* Percent
same,Percent Phospho-Thr75,DARPP-32 [2]; [17],88(3.0)* Percent
same,Percent Phospho-Ser137,"DARPP-32 [2]; Striatum, 5 mg/kg i.p., 15 min",120(8.7) Percent
same,Percent Phospho-Thr34,"DARPP-32 [2]; Striatum, 5 mg/kg i.p., 15 min",123(5.0)* Percent
same,Percent Phospho-Thr75,"DARPP-32 [2]; Striatum, 5 mg/kg i.p., 15 min",95(3.1) Percent
same,Percent Phospho-Ser102,DARPP-32 [2]; [18],108(7.5) Percent
same,Percent Phospho-Thr34,DARPP-32 [2]; [18],155.2(12.9)* Percent
same,Percent Phospho-Thr75,DARPP-32 [2]; [18],84.6(8.9)* Percent
same,Percent Phospho-Thr34,DARPP-32 [2]; [19],141(7.6)* Percent
same,Percent Phospho-Thr75,DARPP-32 [2]; [19],92(2.1)* Percent
same,"fraction of DARPP-32 phosphorylated at Thr-34, Thr-75, or Ser-137","DARPP-32 [2]; chronic fluoxetine 10 mg/kg 19 days, challenged with saline, versus chronic saline/saline, normalized to total DARPP-32",no differences
same,ability of a challenge to increase phosphorylation at Ser-137,"DARPP-32 [2]; striatum, chronic fluoxetine 10 mg/kg 19 days, challenge 10 mg/kg",abolished
same,total inhibitor-1 protein,inhibitor-1; hippocampus,98%
same,total inhibitor-1 protein,inhibitor-1; prefrontal cortex,102%
same,total inhibitor-1 protein,inhibitor-1; striatum,97%
